# Assay results reported in the kinase profiling compilation of Christmann-Franck et al. (2016).
# Tests used:
# Assay in all cases: radiometric filter-binding kinase assay, Kinase HotSpot
# Settings in all cases: compound 0.5 µM; ATP 10 µM
# ABL1 (human) = ABL1 (human) (UniProt P00519)
# AKT3 (human) = AKT3 (human) (UniProt Q9Y243)
# ALK (human) = ALK (human) (UniProt Q9UM73)
# CAMK1G (human) = CAMK1G (human) (UniProt Q96NX5)
# CDK3 CCNE1 (human) = CDK3 CCNE1 (human) (UniProt Q00526+P24864)
# CDK5 CDK5R1 p25 (human) = CDK5 CDK5R1 p25 (human) (UniProt Q00535+Q15078)
# CDK7 CCNH MNAT1 (human) = CDK7 CCNH MNAT1 (human) (UniProt P50613+P51948+P51946)
# CDK9 CCNT1 (human) = CDK9 CCNT1 (human) (UniProt P50750+O60563)
# CSF1R (human) = CSF1R (human) (UniProt P07333)
# DAPK1 (human) = DAPK1 (human) (UniProt P53355)
# EPHA8 (human) = EPHA8 (human) (UniProt P29322)
# EPHB3 (human) = EPHB3 (human) (UniProt P54753)
# ERBB2 (human) = ERBB2 (human) (UniProt P04626)
# GRK7 (human) = GRK7 (human) (UniProt Q8WTQ7)
# HCK (human) = HCK (human) (UniProt P08631)
# HIPK2 (human) = HIPK2 (human) (UniProt Q9H2X6)
# IKBKB (human) = IKBKB (human) (UniProt O14920)
# MAP3K3 (human) = MAP3K3 (human) (UniProt Q99759)
# MAP3K5 (human) = MAP3K5 (human) (UniProt Q99683)
# MAP4K2 (human) = MAP4K2 (human) (UniProt Q12851)
# MAPK13 (human) = MAPK13 (human) (UniProt O15264)
# MARK1 (human) = MARK1 (human) (UniProt Q9P0L2)
# MERTK (human) = MERTK (human) (UniProt Q12866)
# MUSK (human) = MUSK (human) (UniProt O15146)
# MYLK (human) = MYLK (human) (UniProt Q15746)
# NEK3 (human) = NEK3 (human) (UniProt P51956)
# NTRK3 (human) = NTRK3 (human) (UniProt Q16288)
# OXSR1 (human) = OXSR1 (human) (UniProt O95747)
# PAK4 (human) = PAK4 (human) (UniProt O96013)
# PRKCA (human) = PRKCA (human) (UniProt P17252)
# PRKCD (human) = PRKCD (human) (UniProt Q05655)
# PRKD2 (human) = PRKD2 (human) (UniProt Q9BZL6)
# RIPK2 (human) = RIPK2 (human) (UniProt O43353)
# RPS6KA6 KD1 KD2 (human) = RPS6KA6 KD1 KD2 (human) (UniProt Q9UK32)
# RPS6KB1 (human) = RPS6KB1 (human) (UniProt P23443)
# [1] = tested on: SGK1 (human), O00141 [S422D]
# SLK (human) = SLK (human) (UniProt Q9H2G2)
# SRC (human) = SRC (human) (UniProt P12931)
# STK24 (human) = STK24 (human) (UniProt Q9Y6E0)
# TTK (human) = TTK (human) (UniProt P33981)
# VRK1 (human) = VRK1 (human) (UniProt Q99986)
# MARK1 (human), sequence (Q9P0L2 whole entry, looked up): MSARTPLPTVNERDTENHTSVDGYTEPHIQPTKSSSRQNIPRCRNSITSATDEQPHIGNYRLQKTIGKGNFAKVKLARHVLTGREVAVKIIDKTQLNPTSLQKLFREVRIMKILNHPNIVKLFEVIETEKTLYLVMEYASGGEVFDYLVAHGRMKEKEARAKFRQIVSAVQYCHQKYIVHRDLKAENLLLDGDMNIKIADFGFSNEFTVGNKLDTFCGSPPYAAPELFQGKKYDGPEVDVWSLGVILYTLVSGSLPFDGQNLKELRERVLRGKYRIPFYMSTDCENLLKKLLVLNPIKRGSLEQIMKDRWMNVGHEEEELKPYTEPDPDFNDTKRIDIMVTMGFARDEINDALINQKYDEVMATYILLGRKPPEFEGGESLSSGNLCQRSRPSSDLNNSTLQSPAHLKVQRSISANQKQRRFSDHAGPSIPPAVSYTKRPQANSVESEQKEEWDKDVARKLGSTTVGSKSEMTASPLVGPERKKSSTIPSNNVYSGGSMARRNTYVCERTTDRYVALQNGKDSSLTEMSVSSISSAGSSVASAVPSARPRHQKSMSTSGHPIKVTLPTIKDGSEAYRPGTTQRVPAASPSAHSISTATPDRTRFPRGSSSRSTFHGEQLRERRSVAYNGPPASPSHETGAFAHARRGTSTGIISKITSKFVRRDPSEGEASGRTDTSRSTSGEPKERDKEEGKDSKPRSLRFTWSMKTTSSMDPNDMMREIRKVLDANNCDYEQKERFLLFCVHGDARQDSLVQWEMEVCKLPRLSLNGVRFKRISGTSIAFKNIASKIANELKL
# MUSK (human), sequence (O15146 whole entry, looked up): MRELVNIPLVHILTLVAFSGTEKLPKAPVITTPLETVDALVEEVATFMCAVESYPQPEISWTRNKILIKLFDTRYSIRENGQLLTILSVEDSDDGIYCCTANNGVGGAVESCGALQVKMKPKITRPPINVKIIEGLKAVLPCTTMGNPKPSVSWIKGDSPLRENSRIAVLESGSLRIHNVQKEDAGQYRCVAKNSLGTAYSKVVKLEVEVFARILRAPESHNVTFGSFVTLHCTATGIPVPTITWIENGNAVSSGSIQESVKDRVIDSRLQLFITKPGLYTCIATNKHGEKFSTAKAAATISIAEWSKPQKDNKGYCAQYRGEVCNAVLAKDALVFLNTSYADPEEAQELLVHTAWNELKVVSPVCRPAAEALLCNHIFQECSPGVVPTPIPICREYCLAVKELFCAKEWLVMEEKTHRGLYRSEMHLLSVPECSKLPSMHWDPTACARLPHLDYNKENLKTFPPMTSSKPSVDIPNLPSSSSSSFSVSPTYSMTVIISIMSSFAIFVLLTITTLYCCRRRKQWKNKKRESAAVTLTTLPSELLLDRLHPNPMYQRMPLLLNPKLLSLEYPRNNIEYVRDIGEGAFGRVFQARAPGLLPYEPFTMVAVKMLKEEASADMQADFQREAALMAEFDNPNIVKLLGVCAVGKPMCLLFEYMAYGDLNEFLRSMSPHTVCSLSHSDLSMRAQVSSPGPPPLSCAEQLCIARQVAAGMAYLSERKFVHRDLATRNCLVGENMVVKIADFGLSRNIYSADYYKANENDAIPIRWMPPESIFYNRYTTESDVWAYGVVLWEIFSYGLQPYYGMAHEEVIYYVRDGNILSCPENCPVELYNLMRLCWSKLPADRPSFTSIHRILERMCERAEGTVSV
# SGK1 (human), O00141 [S422D], sequence (O00141 whole entry S422D, looked up): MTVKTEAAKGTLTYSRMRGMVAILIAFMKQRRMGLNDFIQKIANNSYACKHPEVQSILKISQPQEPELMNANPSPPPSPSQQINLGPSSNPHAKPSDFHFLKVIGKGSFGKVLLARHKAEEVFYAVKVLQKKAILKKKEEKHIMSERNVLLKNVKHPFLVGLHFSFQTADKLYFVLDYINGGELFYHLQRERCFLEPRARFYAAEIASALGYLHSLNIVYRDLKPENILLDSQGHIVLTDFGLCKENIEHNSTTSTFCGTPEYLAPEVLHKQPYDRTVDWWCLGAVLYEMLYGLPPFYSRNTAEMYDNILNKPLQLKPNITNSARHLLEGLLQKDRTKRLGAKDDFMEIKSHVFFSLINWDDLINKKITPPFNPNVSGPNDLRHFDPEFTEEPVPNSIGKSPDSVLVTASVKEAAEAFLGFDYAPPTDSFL
# RPS6KB1 (human), sequence (P23443 whole entry, looked up): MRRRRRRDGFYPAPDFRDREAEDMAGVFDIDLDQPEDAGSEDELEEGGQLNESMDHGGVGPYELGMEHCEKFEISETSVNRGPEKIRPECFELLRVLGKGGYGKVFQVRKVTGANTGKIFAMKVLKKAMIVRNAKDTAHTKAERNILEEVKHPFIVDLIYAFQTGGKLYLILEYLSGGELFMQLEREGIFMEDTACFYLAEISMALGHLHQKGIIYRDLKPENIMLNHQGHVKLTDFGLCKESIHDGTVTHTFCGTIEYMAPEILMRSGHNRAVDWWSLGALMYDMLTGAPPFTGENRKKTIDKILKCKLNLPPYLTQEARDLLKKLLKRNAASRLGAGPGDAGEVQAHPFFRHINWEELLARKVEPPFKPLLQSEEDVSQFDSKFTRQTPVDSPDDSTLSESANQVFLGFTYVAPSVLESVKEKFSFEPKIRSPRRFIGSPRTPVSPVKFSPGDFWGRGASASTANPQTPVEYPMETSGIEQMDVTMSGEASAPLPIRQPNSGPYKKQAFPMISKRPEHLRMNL
# SRC (human), sequence (P12931 whole entry, looked up): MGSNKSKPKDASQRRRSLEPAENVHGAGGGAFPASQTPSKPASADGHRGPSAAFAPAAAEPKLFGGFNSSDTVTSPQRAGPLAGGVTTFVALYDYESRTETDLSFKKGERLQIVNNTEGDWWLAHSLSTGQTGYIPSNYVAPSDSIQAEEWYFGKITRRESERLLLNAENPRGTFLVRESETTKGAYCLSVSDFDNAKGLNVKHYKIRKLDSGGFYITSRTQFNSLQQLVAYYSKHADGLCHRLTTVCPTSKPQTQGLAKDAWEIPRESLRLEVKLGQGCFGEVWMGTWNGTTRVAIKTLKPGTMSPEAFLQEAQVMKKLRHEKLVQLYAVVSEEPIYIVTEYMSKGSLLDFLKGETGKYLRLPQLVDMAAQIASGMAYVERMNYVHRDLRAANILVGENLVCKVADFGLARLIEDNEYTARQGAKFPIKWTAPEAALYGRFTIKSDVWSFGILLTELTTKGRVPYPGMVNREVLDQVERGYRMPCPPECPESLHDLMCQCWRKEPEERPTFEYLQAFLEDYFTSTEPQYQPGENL
# SLK (human), sequence (Q9H2G2 whole entry, looked up): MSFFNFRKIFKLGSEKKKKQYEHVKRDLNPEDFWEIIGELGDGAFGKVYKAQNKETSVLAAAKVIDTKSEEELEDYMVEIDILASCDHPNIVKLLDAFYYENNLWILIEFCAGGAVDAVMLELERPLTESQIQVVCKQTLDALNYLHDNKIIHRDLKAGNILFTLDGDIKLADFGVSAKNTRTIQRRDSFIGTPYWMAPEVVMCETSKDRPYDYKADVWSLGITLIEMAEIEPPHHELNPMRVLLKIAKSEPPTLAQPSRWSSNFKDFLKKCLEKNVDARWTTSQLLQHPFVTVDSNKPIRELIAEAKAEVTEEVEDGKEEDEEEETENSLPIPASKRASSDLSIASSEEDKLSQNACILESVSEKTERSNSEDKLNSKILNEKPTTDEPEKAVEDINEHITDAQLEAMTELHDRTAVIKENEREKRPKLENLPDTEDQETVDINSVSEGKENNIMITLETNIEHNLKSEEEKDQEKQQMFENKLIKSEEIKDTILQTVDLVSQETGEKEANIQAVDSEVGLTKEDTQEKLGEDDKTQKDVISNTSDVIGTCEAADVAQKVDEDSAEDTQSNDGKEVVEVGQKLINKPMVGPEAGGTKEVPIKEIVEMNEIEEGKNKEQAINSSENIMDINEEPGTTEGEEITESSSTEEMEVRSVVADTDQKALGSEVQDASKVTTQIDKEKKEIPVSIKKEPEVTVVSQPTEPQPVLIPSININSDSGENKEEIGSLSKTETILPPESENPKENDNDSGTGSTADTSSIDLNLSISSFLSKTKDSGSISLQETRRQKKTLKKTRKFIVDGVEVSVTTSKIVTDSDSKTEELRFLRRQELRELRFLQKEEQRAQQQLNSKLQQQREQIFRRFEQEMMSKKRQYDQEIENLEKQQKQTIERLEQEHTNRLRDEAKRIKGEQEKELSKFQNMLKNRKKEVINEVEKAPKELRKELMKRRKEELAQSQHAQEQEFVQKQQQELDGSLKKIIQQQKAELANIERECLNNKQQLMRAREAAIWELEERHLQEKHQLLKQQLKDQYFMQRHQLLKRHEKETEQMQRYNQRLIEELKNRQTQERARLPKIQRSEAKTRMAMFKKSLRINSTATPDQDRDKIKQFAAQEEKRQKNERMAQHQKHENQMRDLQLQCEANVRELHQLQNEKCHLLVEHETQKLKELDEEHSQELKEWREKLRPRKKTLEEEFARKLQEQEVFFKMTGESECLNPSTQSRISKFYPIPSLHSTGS
# HCK (human), sequence (P08631 whole entry, looked up): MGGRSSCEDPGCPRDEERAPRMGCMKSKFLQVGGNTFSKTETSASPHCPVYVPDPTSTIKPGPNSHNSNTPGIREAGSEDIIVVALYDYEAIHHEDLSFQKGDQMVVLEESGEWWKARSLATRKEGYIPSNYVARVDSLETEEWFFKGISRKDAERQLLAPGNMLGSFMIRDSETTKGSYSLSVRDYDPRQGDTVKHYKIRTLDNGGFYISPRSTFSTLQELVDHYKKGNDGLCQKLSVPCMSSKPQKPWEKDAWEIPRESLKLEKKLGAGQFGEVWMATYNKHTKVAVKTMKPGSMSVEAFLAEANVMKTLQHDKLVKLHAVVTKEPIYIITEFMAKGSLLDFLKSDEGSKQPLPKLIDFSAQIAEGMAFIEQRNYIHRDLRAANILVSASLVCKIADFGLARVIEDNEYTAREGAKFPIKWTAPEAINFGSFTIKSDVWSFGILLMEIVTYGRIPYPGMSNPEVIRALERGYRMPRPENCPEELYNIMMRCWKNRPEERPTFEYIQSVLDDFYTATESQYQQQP
structure (smiles),measurement,setting,value
Cc1cc(Nc2nc(-c3ccccc3)nc3ccccc23)n[nH]1,residual activity,ABL1 (human),75.4%
same,residual activity,AKT3 (human),95.5%
same,residual activity,ALK (human),75.9%
same,residual activity,CAMK1G (human),101%
same,residual activity,CDK3 CCNE1 (human),85%
same,residual activity,CDK5 CDK5R1 p25 (human),98.7%
same,residual activity,CDK7 CCNH MNAT1 (human),73.3%
same,residual activity,CDK9 CCNT1 (human),89.1%
same,residual activity,CSF1R (human),33.1%
same,residual activity,DAPK1 (human),39.1%
same,residual activity,EPHA8 (human),98.2%
same,residual activity,EPHB3 (human),86.5%
same,residual activity,ERBB2 (human),108%
same,residual activity,GRK7 (human),79.2%
same,residual activity,HCK (human),77.3%
same,residual activity,HIPK2 (human),101%
same,residual activity,IKBKB (human),69.8%
same,residual activity,MAP3K3 (human),82.9%
same,residual activity,MAP3K5 (human),99.5%
same,residual activity,MAP4K2 (human),45.3%
same,residual activity,MAPK13 (human),106%
same,residual activity,MARK1 (human),93.7%
same,residual activity,MERTK (human),72.2%
same,residual activity,MUSK (human),51%
same,residual activity,MYLK (human),60.2%
same,residual activity,NEK3 (human),101%
same,residual activity,NTRK3 (human),2.01%
same,residual activity,OXSR1 (human),98.1%
same,residual activity,PAK4 (human),84.2%
same,residual activity,PRKCA (human),92.2%
same,residual activity,PRKCD (human),91.3%
same,residual activity,PRKD2 (human),75.9%
same,residual activity,RIPK2 (human),70.4%
same,residual activity,RPS6KA6 KD1 KD2 (human),56.3%
same,residual activity,RPS6KB1 (human),60.4%
same,residual activity,[1],95.5%
same,residual activity,SLK (human),42.2%
same,residual activity,SRC (human),24.4%
same,residual activity,STK24 (human),66%
same,residual activity,TTK (human),102%
same,residual activity,VRK1 (human),81%
O=c1c2ccccc2[nH]c(=S)n1CCN1CCC(=C(c2ccc(F)cc2)c2ccc(F)cc2)CC1,residual activity,ABL1 (human),106%
same,residual activity,AKT3 (human),99.4%
same,residual activity,ALK (human),104%
same,residual activity,CAMK1G (human),104%
same,residual activity,CDK3 CCNE1 (human),100%
same,residual activity,CDK5 CDK5R1 p25 (human),93.5%
same,residual activity,CDK7 CCNH MNAT1 (human),99.6%
same,residual activity,CDK9 CCNT1 (human),102%
same,residual activity,CSF1R (human),102%
same,residual activity,DAPK1 (human),93.8%
same,residual activity,EPHA8 (human),102%
same,residual activity,EPHB3 (human),92.8%
same,residual activity,ERBB2 (human),98.8%
same,residual activity,GRK7 (human),111%
same,residual activity,HCK (human),114%
same,residual activity,HIPK2 (human),105%
same,residual activity,IKBKB (human),99.5%
same,residual activity,MAP3K3 (human),102%
same,residual activity,MAP3K5 (human),98.1%
same,residual activity,MAP4K2 (human),112%
same,residual activity,MAPK13 (human),106%
same,residual activity,MARK1 (human),99.7%
same,residual activity,MERTK (human),97%
same,residual activity,MUSK (human),93.6%
same,residual activity,MYLK (human),96.2%
same,residual activity,NEK3 (human),94%
same,residual activity,NTRK3 (human),98.9%
same,residual activity,OXSR1 (human),115%
same,residual activity,PAK4 (human),101%
same,residual activity,PRKCA (human),73.1%
same,residual activity,PRKCD (human),95.7%
same,residual activity,PRKD2 (human),98.9%
same,residual activity,RIPK2 (human),93.1%
same,residual activity,RPS6KA6 KD1 KD2 (human),101%
same,residual activity,RPS6KB1 (human),97.9%
same,residual activity,[1],96%
same,residual activity,SLK (human),103%
same,residual activity,SRC (human),103%
same,residual activity,STK24 (human),93.4%
same,residual activity,TTK (human),96.3%
same,residual activity,VRK1 (human),95.9%
CCOc1cc2ncnc(Nc3cccc(Br)c3)c2cc1OCC,residual activity,ABL1 (human),64.3%
same,residual activity,AKT3 (human),104%
same,residual activity,ALK (human),85.8%
same,residual activity,CAMK1G (human),97.2%
same,residual activity,CDK3 CCNE1 (human),95.2%
same,residual activity,CDK5 CDK5R1 p25 (human),89.5%
same,residual activity,CDK7 CCNH MNAT1 (human),93%
same,residual activity,CDK9 CCNT1 (human),98.5%
same,residual activity,CSF1R (human),87.6%
same,residual activity,DAPK1 (human),77.4%
same,residual activity,EPHA8 (human),87.3%
same,residual activity,EPHB3 (human),99.7%
same,residual activity,ERBB2 (human),13.8%
same,residual activity,GRK7 (human),102%
same,residual activity,HCK (human),59.4%
same,residual activity,HIPK2 (human),96.8%
same,residual activity,IKBKB (human),102%
same,residual activity,MAP3K3 (human),92.9%
same,residual activity,MAP3K5 (human),116%
same,residual activity,MAP4K2 (human),91.5%
same,residual activity,MAPK13 (human),96.7%
same,residual activity,MARK1 (human),90.3%
same,residual activity,MERTK (human),87.1%
same,residual activity,MUSK (human),92.6%
same,residual activity,MYLK (human),89.4%
same,residual activity,NEK3 (human),100%
same,residual activity,NTRK3 (human),91.5%
same,residual activity,OXSR1 (human),102%
same,residual activity,PAK4 (human),115%
same,residual activity,PRKCA (human),85.3%
same,residual activity,PRKCD (human),100%
same,residual activity,PRKD2 (human),86.9%
same,residual activity,RIPK2 (human),39.8%
same,residual activity,RPS6KA6 KD1 KD2 (human),93.3%
same,residual activity,RPS6KB1 (human),95.8%
same,residual activity,[1],120%
same,residual activity,SLK (human),64.8%
same,residual activity,SRC (human),74.8%
same,residual activity,STK24 (human),97.6%
same,residual activity,TTK (human),91.2%
same,residual activity,VRK1 (human),101%
CCc1nc(-c2ccc(OC)cc2)[nH]c1-c1ccncc1,residual activity,ABL1 (human),101%
same,residual activity,AKT3 (human),101%
same,residual activity,ALK (human),106%
same,residual activity,CAMK1G (human),98%
same,residual activity,CDK3 CCNE1 (human),97.9%
same,residual activity,CDK5 CDK5R1 p25 (human),95.9%
same,residual activity,CDK7 CCNH MNAT1 (human),97.3%
same,residual activity,CDK9 CCNT1 (human),88.5%
same,residual activity,CSF1R (human),100%
same,residual activity,DAPK1 (human),97.4%
same,residual activity,EPHA8 (human),93.5%
same,residual activity,EPHB3 (human),107%
same,residual activity,ERBB2 (human),98.9%
same,residual activity,GRK7 (human),101%
same,residual activity,HCK (human),95.1%
same,residual activity,HIPK2 (human),93.6%
same,residual activity,IKBKB (human),106%
same,residual activity,MAP3K3 (human),99%
same,residual activity,MAP3K5 (human),105%
same,residual activity,MAP4K2 (human),106%
same,residual activity,MAPK13 (human),112%
same,residual activity,MARK1 (human),99.2%
same,residual activity,MERTK (human),92.1%
same,residual activity,MUSK (human),85.9%
same,residual activity,MYLK (human),104%
same,residual activity,NEK3 (human),92.4%
same,residual activity,NTRK3 (human),103%
same,residual activity,OXSR1 (human),97.7%
same,residual activity,PAK4 (human),118%
same,residual activity,PRKCA (human),107%
same,residual activity,PRKCD (human),98.5%
same,residual activity,PRKD2 (human),102%
same,residual activity,RIPK2 (human),95%
same,residual activity,RPS6KA6 KD1 KD2 (human),111%
same,residual activity,RPS6KB1 (human),98.4%
same,residual activity,[1],104%
same,residual activity,SLK (human),99.7%
same,residual activity,SRC (human),95.3%
same,residual activity,STK24 (human),93.2%
same,residual activity,TTK (human),105%
same,residual activity,VRK1 (human),104%
O=C(O)c1ccc2c3c1cccc3c(=O)n1c3ccccc3nc21,residual activity,ABL1 (human),99.3%
same,residual activity,AKT3 (human),104%
same,residual activity,ALK (human),92.7%
same,residual activity,CAMK1G (human),99%
same,residual activity,CDK3 CCNE1 (human),97.9%
same,residual activity,CDK5 CDK5R1 p25 (human),80.6%
same,residual activity,CDK7 CCNH MNAT1 (human),92.1%
same,residual activity,CDK9 CCNT1 (human),78.3%
same,residual activity,CSF1R (human),104%
same,residual activity,DAPK1 (human),40.9%
same,residual activity,EPHA8 (human),89.4%
same,residual activity,EPHB3 (human),94.5%
same,residual activity,ERBB2 (human),99.7%
same,residual activity,GRK7 (human),102%
same,residual activity,HCK (human),96.7%
same,residual activity,HIPK2 (human),101%
same,residual activity,IKBKB (human),109%
same,residual activity,MAP3K3 (human),81%
same,residual activity,MAP3K5 (human),102%
same,residual activity,MAP4K2 (human),38%
same,residual activity,MAPK13 (human),104%
same,residual activity,MARK1 (human),79.5%
same,residual activity,MERTK (human),77.7%
same,residual activity,MUSK (human),47.1%
same,residual activity,MYLK (human),89.8%
same,residual activity,NEK3 (human),91.8%
same,residual activity,NTRK3 (human),67.1%
same,residual activity,OXSR1 (human),104%
same,residual activity,PAK4 (human),114%
same,residual activity,PRKCA (human),101%
same,residual activity,PRKCD (human),103%
same,residual activity,PRKD2 (human),86.8%
same,residual activity,RIPK2 (human),78.4%
same,residual activity,RPS6KA6 KD1 KD2 (human),101%
same,residual activity,RPS6KB1 (human),95.9%
same,residual activity,[1],102%
same,residual activity,SLK (human),94.1%
same,residual activity,SRC (human),96.3%
same,residual activity,STK24 (human),87.6%
same,residual activity,TTK (human),81%
same,residual activity,VRK1 (human),103%
